Results on 17 compounds are retold here after patent publication US4816471A, “Substituted heterocyclic benzamides, methods of preparing them and their application as anti-emetics” (Societe d'Etudes Scientifiques et Industrielles de …, priority 1978, dated 1989).

In data set [1] the test system is chewing stereotypes induced by dexamphetamine. The experiment in a line: antagonism to chewing stereotypes induced by dexamphetamine in rats, Janssen's method. The data set is classed as in vivo. The settings on record: Table 5, dexamphetamine 10 mg/kg; for ED50: Rattus norvegicus, sc; for % antagonism to chewing stereotypes induced by dexamphetamine: s.c., at 100 mg/kg. How it is done: The compounds were also tested for antagonism to chewing stereotypes induced by dexamphetamine (10 mg/kg) in rats, by Janssen's method in Arzn. Forsch. 1961, 11, 932-938 under subcutaneous administration with the following results: […]

Data set [2] deals with anti-emetic power relative to apomorphine in dogs. The experiment in a line: anti-emetic ED50 under oral administration (procedure of Example 29). The data set is classed as in vivo. Conditions: Canis lupus familiaris, Table 2. As to the method:
(§1) The pharmacodynamic tests on the compounds of this invention, and particularly a study of their anti-emetic power have shown strong activity on the nervous system as apomorphine antagonists. […] In accordance with the above-mentioned procedures, the compounds of the invention were administered subcutaneously 30 minutes before the administration of apomorphine, which was administered subcutaneously in a dose of 100 ug/kg.
Compounds SLC-036, 77205 and 77149 are disclosed in U.S. Pat. No. 4,172,143 for comparison purposes, as Examples 10, 33 and 37 therein. The results for those compounds are reported in Table IX of the '143 Patent and are believed to represent results from oral administration.
Pharmacological tests were carried out under oral administration to determine anti-emetic ED50 in accordance with the procedure of Example 29 with the following results: […]

Data set [3] can be described thus: acute toxicity in the mouse. Conditions: in vivo. From the text:
The acute toxicity of the compounds of the invention has been studied in the mouse. The LD50 's are set out in the following Table 3. […] This characteristic is highly desirable because the possibility of toxic effects due to the administration of therapeutic doses is thereby minimized.

Data set [4] concerns anti-emetic power relative to apomorphine in dogs. The experiment in a line: anti-emetic power relative to apomorphine in dogs by the method of Chen and Ensor (subcutaneous administration). It counts as in vivo. The settings on record: Canis lupus familiaris, sc, Table 1, s.c. 30 minutes before apomorphine 100 ug/kg s.c. How it is done:
as §1

Data set [5] has as its system chewing stereotypes induced by apomorphine. In words: antagonism to chewing stereotypes induced by apomorphine in rats, method of Janssen. The data set is classed as in vivo. The settings on record: Table 4, apomorphine 1.25 mg/kg; for ED50: Rattus norvegicus, sc; for % antagonism to chewing stereotypes induced by apomorphine: s.c., at 200. How it is done:
The neurological activity of the compounds of the invention was compared to the activity of prior art compounds in U.S. Pat. No. 4,172,143 and with a standard in this field, Sulpiride, N-[(1-ethylpyrrolidinyl-2)methyl]-2-methoxy-5 sulphamoyl benzamide. The compounds were tested for antagonism to chewing stereotypes induced by apomorphine (1.25 mg/kg in rats, according to the method of Janssen in Arzn. Forsch. 1960-10, 1003-5, under subcutaneous administration and the results were as follows: […]

Data set [6] relates to anti-emetic power relative to apomorphine in dogs. Conditions: cited from earlier work; for ED50 (Prior Art Compounds, Results Reported in U.S. Pat No. 4,172,143): Table 1, method of administration believed oral; for ED50 (oral): Table 2, prior art compounds, same values as reported in U.S. Pat. No. 4,172,143.
In data set [7] the test system is biting sterotypes induced by apomorphine. In words: potentiation of biting sterotypes induced by apomorphine in mice, Pedeson's method. Conditions: Table 6, apomorphine 10 mg/kg, interperitoneal; for ED50: Mus musculus, ip. It counts as in vivo. How it is done: The compounds were also tested for potentiation of biting sterotypes induced by apomorphine (10 (mg/kg) in mice, under interperitoneal administration in accordance with Pedeson's method in Brit J. Pharmacol. 1968, 34 (1), 219-220 with the following results: […]

Data set [8] has as its system stereotypes induced by apomorphine. In words: potentiation of stereotypes induced by apomorphine in rats. The data set is classed as in vivo. The settings on record: Table 7, apomorphine 0.25 mg/kg, intraperitoneal, at 8 mg/kg. As to the method: The compound of Example 2 was tested against sulpiride for potentiation of stereotypes induced by apomorphine (0.25 mg/kg) in rats under intraperitoneal administration with the following results: […]

One may read the ED50 as the midpoint of the dose-response relation. For orientation: LD50 means the dose at which mortality reaches 50%.

Where a name gives a salt, the structure may show the parent alone.

For `CNS(=O)(=O)c1ccc(OC)c(C(=O)NCC2CCCN2CC2=CCCCC2)c1` (stereo not drawn) [Example 15, N-(1-cyclohexenylmethyl 2-pyrrolidinylmethyl) 2-methoxy 5-methylsulphamoyl benzamide], the 50% effective dose (ED50) in data set [1] is 0.78 mg/kg; in data set [2], 1.1 µg/kg; in data set [4] it was 0.21 µg/kg; in data set [5], 1.22 mg/kg. The median lethal dose (LD50) in data set [3] (I.V. (intravenous)) lay within 44.2 to 46.5 mg/kg; in data set [3] (P.O. (oral)), 540 to 558 mg/kg; in data set [3] (ip, I.P. (intraperitoneal)), 204 to 208 mg/kg; in data set [3] (sc, S.C. (subcutaneous)) it was 462 to 494 mg/kg.
Take `CNS(=O)(=O)c1ccc(OC)c(C(=O)NCC2CCCN2CC2=CCCCCC2)c1` (stereo not drawn) [Example 13, N-(1-cycloheptenylmethyl 2-pyrrolidinylmethyl) 2-methoxy 5-methylsulphamoylbenzamide]: the 50% effective dose (ED50) in data set [1] amounted to 0.54 mg/kg; in data set [4] it was 0.5 µg/kg; in data set [5] it was 1.5 mg/kg. Also, the 50% lethal dose (LD50) was 45.5 to 48 mg/kg in data set [3] (I.V. (intravenous)); 312 to 330 mg/kg in data set [3] (P.O. (oral)); 128 to 140 mg/kg in data set [3] (ip, I.P. (intraperitoneal)); 322 to 336 mg/kg in data set [3] (sc, S.C. (subcutaneous)).
Turning to `COc1ccc(S(N)(=O)=O)cc1C(=O)NCC1CCCN1CC1CC1` (stereo not drawn) [SLC-036, N--(1cyclopropylmethyl 2pyrrolidinylmethyl)-2-methoxy-5-sulphamoyl benzamide, reference compound], in data set [6], the “ED50 (Prior Art Compounds, Results Reported in U.S. Pat No. 4,172,143)” value was 37.0 µg/kg and the “ED50 (oral)” value was 37.00 µg/kg. In data set [1], the “% antagonism to chewing stereotypes induced by dexamphetamine” value worked out at 0%. Also, the “% antagonism to chewing stereotypes induced by apomorphine” value (“% antagonism … by apomorphine” below) in data set [5] amounted to 0%.
The compound `CNS(=O)(=O)c1cc(OC)c(OC)c(C(=O)NCC2CCCN2CC2CC2)c1` (stereo not drawn) [Example 5, N-(1-cyclopropylmethyl 2-pyrrolidinylmethyl)-2,3-dimethoxy 5-methylsulphamoyl benzamide] returned an ED50 in data set [4] of 0.5 µg/kg.
Consider `CCS(=O)(=O)c1cc(C(=O)NCC2CCCN2CC2=CCCC2)c(OC)cc1N` (stereo not drawn) [Example 10, N-(1-cyclopentenylmethyl 2-pyrrolidinylmethyl)-2-methoxy 4-amino 5-ethylsulphonyl benzamide], for which the 50% effective dose (ED50) in data set [1] stood at 14 mg/kg; in data set [4], 1.3 µg/kg. For the same compound, the median lethal dose (LD50) in data set [3] (I.V. (intravenous)) was 41.8 to 42 mg/kg; in data set [3] (P.O. (oral)), 980 to 990 mg/kg; in data set [3] (ip, I.P. (intraperitoneal)), 204 to 212 mg/kg; in data set [3] (sc, S.C. (subcutaneous)), 330 to 360 mg/kg.
As for `CCS(=O)(=O)c1cc(C(=O)NCC2CCCN2CC2CCCCC2)c(OC)cc1N` (stereo not drawn) [Example 8, N-(1-cyclohexylmethyl-2-pyrrolidinyl-methyl)-2-methoxy-4-amino-5-ethylsulphonyl-benzamide], the 50% effective dose (ED50) in data set [1] was found to be 15.4 mg/kg; in data set [4] it was 2 µg/kg; in data set [5], 33 mg/kg. The 50% lethal dose (LD50) fell in the range of 37 to 40.8 mg/kg in data set [3] (I.V. (intravenous)); 348 to 380 mg/kg in data set [3] (P.O. (oral)); 133 to 145 mg/kg in data set [3] (ip, I.P. (intraperitoneal)); 336 to 342 mg/kg in data set [3] (sc, S.C. (subcutaneous)).
Turning to `COc1ccc(S(N)(=O)=O)cc1C(=O)NCC1CCCN1CC1CCCCC1` (stereo not drawn) [Example 77205, N--(1cyclohexylmethyl 2pyrrolidinylmethyl)-2-methoxy-5-sulphamoyl benzamide, reference compound], in data set [6], the “ED50 (Prior Art Compounds, Results Reported in U.S. Pat No. 4,172,143)” value was 14.0 µg/kg and the “ED50 (oral)” value was 14.00 µg/kg. This compound also had an ED50 in data set [1] of 19 mg/kg. Also, the “% antagonism … by apomorphine” value in data set [5] was 20%.
The compound `CC[S+]([O-])c1cc(C(=O)NCC2CCCN2CC2CC2)c(OC)cc1N` (stereo not drawn) [Example 1, N-(1-cyclopropylmethyl 2-pyrrolidinylmethyl)-2-methoxy 4-amino 5-ethylsulphinyl benzamide] returned an ED50 in data set [4] of 0.7 µg/kg.
Turning to `CCS(=O)(=O)c1cc(OC)c(OC)c(C(=O)NCC2CCCN2CC2CC2)c1` (stereo not drawn) [Example 16, N-(1-cyclopropylmethyl 2-pyrrolidinylmethyl) 2,3-dimethoxy 5-ethylsulphonylbenzamide, hydrochloride], the 50% effective dose (ED50) in data set [1] stood at 1.34 mg/kg; in data set [7] it was 0.25 mg/kg; in data set [2] it was 0.23 µg/kg; in data set [5], 3.2 mg/kg. The LD50 lay within 92.9 to 97.2 mg/kg in data set [3] (I.V. (intravenous)); 588 to 598 mg/kg in data set [3] (P.O. (oral)); 303 to 338 mg/kg in data set [3] (ip, I.P. (intraperitoneal)); 595 to 597 mg/kg in data set [3] (sc, S.C. (subcutaneous)).
`COc1ccc(S(N)(=O)=O)cc1C(=O)NCC1CCCN1CC1=CCCCC1` (stereo not drawn) [Example 14, N-[1(1-cyclohexenylmethyl) 2-pyrrolidinylmethyl]2-methoxy 5-sulphamoyl benzamide]: the ED50 in data set [1] worked out at 10 mg/kg; in data set [2] it was 1.2 µg/kg; in data set [4] it was 0.85 µg/kg; in data set [5] it was 16.4 mg/kg. The 50% lethal dose (LD50) in data set [3] (I.V. (intravenous)) lay in the range of 82.5 to 85.5 mg/kg; in data set [3] (P.O. (oral)), 525 to 542 mg/kg; in data set [3] (ip, I.P. (intraperitoneal)), 294 to 317 mg/kg; in data set [3] (sc, S.C. (subcutaneous)), 630 to 640 mg/kg.
Regarding `CNS(=O)(=O)c1cc(C(=O)NCC2CCCN2CC2CC2)c(OC)cc1N` (stereo not drawn) [Example 3, N-(1-cyclopropylmethyl 2-pyrrolidinylmethyl)-2-methoxy 4-amino 5-methylsulphamoyl benzamide], the ED50 in data set [4] was 0.4 µg/kg.
Regarding `CNS(=O)(=O)c1cc(OC)c(OC)c(C(=O)NCC2CCCN2CC2=CCCCC2)c1` (stereo not drawn) [Example 12, N-(1-cyclohexenylmethyl 2-pyrrolidinylmethyl) 2,3-dimethoxy 5-methylsulphamoyl benzamide], the ED50 in data set [1] stood at 1.5 mg/kg; in data set [7] it was 0.33 mg/kg; in data set [4] it was 1.15 µg/kg; in data set [5] it was 4 mg/kg. In addition, the 50% lethal dose (LD50) in data set [3] (I.V. (intravenous)) lay within 57.8 to 62 mg/kg; in data set [3] (P.O. (oral)), 540 to 560 mg/kg; in data set [3] (ip, I.P. (intraperitoneal)), 198 to 200 mg/kg; in data set [3] (sc, S.C. (subcutaneous)), 297 to 319 mg/kg.
For the compound `CCS(=O)(=O)c1cc(C(=O)NCC2CCCN2CC2=CCCCC2)c(OC)cc1N` (stereo not drawn) [Example 11, N-[1-(1-cyclohexenylmethyl)-2-pyrrolidinylmethyl]-2-methoxy 4-amino 5-ethylsulphonyl benzamide, phosphate], the median effective dose (ED50) in data set [1] came to 5.4 mg/kg; in data set [4], 0.57 µg/kg; in data set [5], 13.7 mg/kg. In addition, the LD50 in data set [3] (I.V. (intravenous)) lay within 29.5 to 31.8 mg/kg; in data set [3] (P.O. (oral)), 510 to 555 mg/kg; in data set [3] (ip, I.P. (intraperitoneal)), 180 to 181 mg/kg; in data set [3] (sc, S.C. (subcutaneous)) it was 343 to 360 mg/kg.
For the compound `COc1cc2[nH]nnc2cc1C(=O)NCC1CCCN1CC1=CCCCC1` (stereo not drawn) [Example 22, N-(1-cyclohexenylmethyl 2-pyrrolidinylmethyl) 2-methoxy 4,5-azimido benzamide], the ED50 in data set [4] was 2 µg/kg.
As to `CCN1CCCC1CNC(=O)c1cc(S(N)(=O)=O)ccc1OC` (stereo not drawn) [Sulpiride, N-[(1-ethylpyrrolidinyl-2)methyl]-2-methoxy-5 sulphamoyl benzamide, reference compound], the “% antagonism to chewing stereotypes induced by dexamphetamine” value in data set [1] is on record as 0%. For the same compound, the “% potentiation of biting sterotypes induced by apomorphine” value in data set [7] (at 4 mg/kg) amounted to 12%. Besides, the “% potentiation of stereotypes induced by apomorphine” value in data set [8] stood at 30%. Further, the “% antagonism … by apomorphine” value in data set [5] worked out at 0%.
Turning to `COc1cc(S(N)(=O)=O)cc(C(=O)NCC2CCCN2CC2=CCCCC2)c1OC` (stereo not drawn) [Example 6, N-(1-cyclohexenyl-methyl-2-pyrrolidylmethyl)-2,3-dimethoxy 5-sulphamoyl benzamide], the ED50 was 2.6 mg/kg in data set [7], 2.8 µg/kg in data set [4] and 40 mg/kg in data set [5]. For the same compound, the mortality in data set [3] (ip, I.P., at 240 mg/kg, read-out: 60% at 240 mg/kg (acute toxicity)) was found to be 60%.
In the case of `COc1ccc(S(=O)(=O)N(C)C)cc1C(=O)NCC1CCCN1CC1CC1` (stereo not drawn) [Example 77149, N--(1cyclopropylmethyl 2pyrrolidinylmethyl)-2-methoxy-5-dimethylsulphamoyl benzamide], in data set [6], the “ED50 (Prior Art Compounds, Results Reported in U.S. Pat No. 4,172,143)” value is 40.0 µg/kg and the “ED50 (oral)” value was 40.00 µg/kg.
